Experimental data from US10265367B2, “Synergistic antibacterial effects of magnolia bark extract and L-arginine, N-α-lauroyl ethyl ester on plaque biofilm” (WM. WRIGLEY JR. COMPANY, priority 2015, dated 2019).

Experiments:
[1] = test system: salivary bacteria biofilm; assay: In vitro biofilm assay (salivary bacteria on saliva-treated hydroxyapatite discs); assay type: cell-based
Protocol: Biofilms were prepared and tested by a modified method from Guggenheim (Guggenheim B., Gierstein E., Schupbach P, Shapiro S., 2001. “Validation of an in vitro biofilm model of supragingival plaque” Journal Dental Research 80:363-370), which is herein incorporated by reference. Briefly, biofilms were grown by incubating salivary bacteria with saliva-treated hydroxyapatite (HA) discs in sterile 24 well cell culture plates. Using media supplemented with saliva (25% total volume), and transferring discs frequently during the growth phase, encouraged growth of a dental plaque-like biofilm. This was developed for up to 72 hours. The biofilm was exposed to the test compositions (set forth in Table 1) three times a day, for five minutes, on days two and three of the experiment. Biofilm was quantified turbidometrically and by spectrophometric absorption at 600 nm.
The number of CFU for each biofilm was determined as follows. After vigorous shaking, 0.1 ml of the liquid from each biofilm cell was pipetted into 10 ml reverse osmosis (RO) H2O (100× dilution). The 100× dilution was shaken, and 0.1 ml was pipetted into 10 ml RO H2O (10,000× dilution). […] After the growth period, the number of colonies of bacteria growing on each plate were counted. […]
The IC40 of MBE was determined, and was used as a positive control concentration.

salivary bacteria = assay: Inhibition of biofilm formation on saliva-precoated pegs (Calgary device), MBIC/FBIC; assay type: cell-based
Protocol: 80 ml of saliva was collected from 4 donors and centrifuged at 3800 rpm to remove food debris. 15 ml supernatant was removed and mixed with an equal volume of 1×PBS. The mixture was then filter sterilized to collect saliva proteins that were used to precoat suspended pegs in the lid of the Calgary device for 3 hours. Meanwhile, the remaining saliva was centrifuged at 10,000 rpm to collect bacteria for biofilm inoculum. After centrifugation, the pellet was resuspended to an OD600 of 0.05 and premixed with defined concentrations of LAE-CF (99% purity, from Vedeqsa), MBE and a combination of the two actives at predetermined ratios. The actives and inoculum were added to the saliva precoated pegs and incubated overnight for at least 16 hours to allow for biofilm formation. Controls included growth (no actives) and media only (no bacteria).
The efficacy of the LAE and MBE synergistic effects are shown in the minimal biofilm inhibitory concentrations (MBIC) and fractional biofilm inhibitory concentration (FBIC) for the two actives. The FBIC was calculated according to the following formula: FBIC=[QA/Qa+QB/Qb] where
QA=the MBIC of component A combined with component B.
Qa=the MBIC of component A alone.
QB=the MBIC of component B combined with component A.
Qb=the MBIC of component B alone. […]

Compound: CCCCCCCCCCCC(=O)N[C@@H](CCCNC(=N)N)C(=O)OCC [LAE, L-arginine, N^α-lauroyl ethyl ester]
- inhibition at 1000 ppm ([1]; 5 min, 1000 ppm, biofilm exposed 5 min three times a day on days 2 and 3): 82%
- percent inhibition compared to the positive control ([1]; positive control = MBE at IC40): not better than the positive control
- FBIC (fractional biofilm inhibitory concentration) (salivary bacteria; FBIC=QA/Qa+QB/Qb, <1 synergistic): 1
- MBIC (minimal biofilm inhibitory concentration) (salivary bacteria; active alone, overnight at least 16 hours): 125 ppm
